Source: patent US6583177B2, “Leukotriene B4 antagonist compounds and method for treatment” (Ono Pharmaceutical Co., Ltd., priority 1994, dated 2003)
Like-named read-outs stand apart in the source and are kept apart here.

How the values were obtained:
LTB4 receptor = molecular target: T1, LTB4 receptor (Homo sapiens, UniProt Q15722); test: Binding inhibition against 3H-LTB4 on the human polymorphonuclear leukocyte (PMN); settings: percentage of inhibition of specific 3H-LTB4 (4nM) binding to human PMN, 0° C. for 20 min
T1 construct: The reaction was started by addition of a thoroughly mixed PMN cell suspension (1.6×10^6 cells); endogenous in cells; host or cells: human polymorphonuclear leukocytes (PMN), whole-cell suspension
Description: Binding Inhibition Against ^3H-LTB4 on the Human Polymorphonuclear Leukocyte (PMN)
0.049 ml Hanks balanced salt solution (HBSS), 0.001 ml test compound and 0.05 ml ^3H-LTB4 (4nM) were added to polypropylene tubes and mixed. The reaction was started by addition of a thoroughly mixed PMN cell suspension (1.6×10^6 cells), followed by incubation at 0° C. for 20 min. The reaction was terminated by the addition of ice-cold HBSS (2.5 ml). PMNs were harvested by vacuum filtration through Whatman GF/C glass fiber filters on a Brandel cell harvester (BRANDEL, M-24R). The filters were then washed 2 times to remove free ^3H-LTB4 with 2.5 ml of the ice-cold PBS (−) solution. The filters were transferred to each vial, and equilibrated after adding 8 ml ACS II cocktail (Amersham). The radioactivity was measured by liquid scintillation counter (Aloka, LSC-5100).
Specific binding of ^3H-LTB4 to the LTB4 receptor was defined as total binding minus nonspecific binding. Nonspecific binding was the amount of ^3H-LTB4 binding in the presence of 1.5 μM LTB4 instead of the test compound. The inhibitory effect of test compound was calculated from the following equation.
The percentage of inhibition (%)=100−(B1/B0×100)
B1: Specific ^3H-LTB4 binding in presence of test compound
B0: Specific ^3H-LTB4 binding in absence of test compound
The compounds of the formula (IB), of the present invention have an antagonistic activity on LTB4. The results which are measured by method as hereinbefore described in Example 1(A), are shown the following Table 18.

[1] = molecular target: T2, trypsin (derived from bovine pancreas) (Bos taurus, UniProt P00760); test: Inhibitory activity on trypsin; format: biochemical
T2 construct: a solution of 80 mU/ml trypsin (derived from bovine pancreas) (50 μl); from tissue; host or cells: bovine pancreas
T2 sequence (P00760 24-246): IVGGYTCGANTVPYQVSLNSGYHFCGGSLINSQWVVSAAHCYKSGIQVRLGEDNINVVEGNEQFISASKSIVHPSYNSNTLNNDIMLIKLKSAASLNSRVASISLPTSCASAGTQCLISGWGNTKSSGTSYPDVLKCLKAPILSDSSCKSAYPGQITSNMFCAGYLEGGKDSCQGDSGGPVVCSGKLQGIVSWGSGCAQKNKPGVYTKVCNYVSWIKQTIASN
Description: (2) Inhibitory Activity on Trypsin
To a mixture of a 0.2 M HEPES.sodium hydroxide buffer solution (pH 8.0, 100 μl) and distilled water (640 μl), were added a test compound in various concentration or water (10 μl), and a solution of 80 mU/ml trypsin (derived from bovine pancreas) (50 μl) and then the mixture was preincubated for one minute at 30° C. To the solution thus obtained was added 2.5 mM BAPNA (200 μl) and the mixture was incubated at 30° C. The absorbance at 405 nm was measured. Percentage (%) of the absorbance in the presence of a test compound was calculated when the absorbance in the absence thereof was regarded as 100%, and therefrom IC50 value was calculated.
HEPES represents 4-2-hydroxyethyl)-1-piperazineethanesulfonic acid, and
BAPNA represents α-N-benzoyl-DL-arginine-p-nitroanilide hydrochloride.

[2] = molecular target: T3, PLA2 (derived from hog pancreas) (Sus scrofa, UniProt P00592); test: Inhibitory activity on PLA2; format: biochemical; settings: hog pancreas PLA2, 10PY-PC substrate, fluorescence, pH7.5
T3 construct: a solution of 10 mU/ml PLA2 (derived from hog pancreas) (50 μl); from tissue; host or cells: hog pancreas
Description: (1) Inhibitory Activity on PLA2
A reaction solution including 50 mM tris-HCl buffer (pH7.5, 874 μl; containing 100 mM sodium chloride, 1 mM EDTA), 1M calciumchloride (6 μl), 1% bovine serum albumin (10 μl) and 2.5 mM 10PY-PC (10 μl), was prepared. To the solution were added a test compound in various concentration or water (50 μl), and a solution of 10 mU/ml PLA2 (derived from hog pancreas) (50 μl). The appearance of fluorescence was measured (Ex=345 nm, Em=396 nm). Percentage (%) of the strength of fluorescence in the presence of a test compound was calculated when the strength of that in the absence thereof was regarded as 100%, and therefrom IC50 value was calculated.
10PY-PC represents 3′-palmitoyl-2-(1-pyrenedecanoyl)-L-α-phosphatidylcholine, […]

[3] = formula (IA) compounds, Table 17
[4] = formula (IB) compounds, Table 18
[5] = bovine pancreas trypsin, BAPNA substrate, 30° C., pH 8.0, read-out: inhibitory activity on trypsin IC50

T3 sequence (P00592 23-146): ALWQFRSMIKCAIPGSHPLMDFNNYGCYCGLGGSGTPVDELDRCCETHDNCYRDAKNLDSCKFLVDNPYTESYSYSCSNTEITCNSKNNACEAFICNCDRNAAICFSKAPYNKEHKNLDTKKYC
T1 sequence (Q15722 whole entry): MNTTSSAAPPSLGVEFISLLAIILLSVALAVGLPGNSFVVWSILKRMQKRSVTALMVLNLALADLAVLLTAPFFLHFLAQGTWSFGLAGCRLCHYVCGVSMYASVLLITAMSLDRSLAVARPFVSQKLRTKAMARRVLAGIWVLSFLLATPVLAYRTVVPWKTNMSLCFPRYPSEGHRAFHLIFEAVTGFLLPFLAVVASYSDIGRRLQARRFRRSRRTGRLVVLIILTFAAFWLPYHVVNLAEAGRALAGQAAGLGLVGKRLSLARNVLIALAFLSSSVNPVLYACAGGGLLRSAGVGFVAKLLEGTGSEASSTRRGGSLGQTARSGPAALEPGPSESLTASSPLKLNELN

## C=CCN(CC(=O)OCC)C(=O)/C(C)=C/c1ccc(C(=O)Oc2ccc(C(=N)N)cc2)cc1 [Compound 1]
LTB4 receptor; [3]
  inhibition: 91.5%

## C=CCN(CC(=O)OCC)C(=O)COc1ccc(C(=O)Oc2ccc(C(=N)N)cc2)cc1 [Compound 2]
LTB4 receptor; [4]
  inhibition: 79.7%
[1]; [5]
  IC50: 190 nM

## CCOC(=O)CC[C@H](NC(=O)/C=C(\C)c1ccc(C(=O)Oc2ccc(C(=N)N)cc2)cc1)C(=O)OCC [Compound 4]
LTB4 receptor; [3]
  inhibition: 63.7%

## CCOP(=O)(CCCc1ccccc1)Cc1ccc(C(=O)Oc2ccc(C(=N)N)cc2)cc1 (stereo not shown) [Compound 4]
[2]
  IC50: 41000 nM
LTB4 receptor; [4]
  inhibition: 73.1%
[1]; [5]
  IC50: 160 nM

## N=C(N)c1ccc(OC(=O)c2ccc(CN3CCC(c4ccccc4)CC3)cc2)cc1 [Compound 5]
LTB4 receptor; [4]
  inhibition: 89.7%
[1]; [5]
  IC50: 130 nM

## CCOC(=O)CN(Cc1ccccc1)Cc1ccc(C(=O)Oc2ccc(C(=N)N)cc2)cc1 [Compound 6]
[2]
  IC50: 4500 nM
LTB4 receptor; [4]
  inhibition: 67.8%
[1]; [5]
  IC50: 170 nM

## C=CCN(CCCC(=O)OCC)C(=O)/C(C)=C/c1ccc(C(=O)Oc2ccc(C(=N)N)cc2)cc1 [Compound 14]
LTB4 receptor; [3]
  inhibition: 96.5%

## CCOC(=O)CCN(CC(=O)OCC)C(=O)/C(C)=C/c1ccc(C(=O)Oc2ccc(C(=N)N)cc2)cc1 [Compound 18]
LTB4 receptor; [3]
  inhibition: 87%

## C=CCN(CCCC(=O)O)C(=O)/C(C)=C/c1ccc(C(=O)Oc2ccc(C(=N)N)cc2)cc1 [Compound 20]
LTB4 receptor; [3]
  inhibition: 83.5%

## C/C(=C\c1ccc(C(=O)Oc2ccc(C(=N)N)cc2)cc1)C(=O)N(CC(=O)O)Cc1ccccc1 [Compound 21]
LTB4 receptor; [3]
  inhibition: 90.8%

## COCCCN(C(=O)/C(C)=C/c1ccc(C(=O)Oc2ccc(C(=N)N)cc2)cc1)C(C(=O)O)C(=O)O [Compound 24]
LTB4 receptor; [3]
  inhibition: 61.2%

## N=C(N)C1=Cc2ccc(OC(=O)c3ccc(C(=O)N(Cc4ccccc4)c4ccccc4)cc3)cc2CC1 [Example 2(a)]
[2]
  IC50: 2600 nM
LTB4 receptor; [4]
  inhibition: 92%
[1]; [5]
  IC50: 400 nM

## C/C(=C\c1ccc(C(=O)Oc2ccc(C(=N)N)cc2)cc1)C(=O)N(CCC(=O)O)C1CCCCC1 [Example 2(aa)]
LTB4 receptor; [4]
  inhibition: 94.4%

## N=C(N)C1=Cc2ccc(OC(=O)c3ccc(C(=O)N(CC(=O)OCc4ccccc4)c4ccccc4)cc3)cc2CC1 [Example 2(b)]
[2]
  IC50: 3800 nM
LTB4 receptor; [4]
  inhibition: 97.9%
[1]; [5]
  IC50: 560 nM

## CCOC(=O)CN(CCOC)C(=O)/C(C)=C/c1ccc(C(=O)Oc2ccc(C(=N)N)cc2)cc1 [Example 2(bb)]
LTB4 receptor; [4]
  inhibition: 87.3%

## CCOC(=O)CN(C(=O)c1ccc(C(=O)Oc2ccc3c(c2)CCC(C(=N)N)=C3)cc1)c1ccccc1 [Example 2(c)]
[2]
  IC50: 8100 nM
LTB4 receptor; [4]
  inhibition: 103%
[1]; [5]
  IC50: 260 nM

## C/C(=C\c1ccc(C(=O)Oc2ccc(C(=N)N)cc2)cc1)C(=O)N(CC(=O)O)CC1CCCO1 (stereo not shown) [Example 2(cc)]
LTB4 receptor; [4]
  inhibition: 76.7%

## CCOC(=O)CN(C(=O)c1ccc(C(=O)Oc2ccc(/C=C/C(=N)N)cc2)cc1)c1ccccc1 [Example 2(d)]
[2]
  IC50: 8700 nM
LTB4 receptor; [4]
  inhibition: 99.3%
[1]; [5]
  IC50: 140 nM

## C/C(=C\c1ccc(C(=O)Oc2ccc(C(=N)N)cc2)cc1)C(=O)N(CC(=O)O)CC1CCNCC1 [Example 2(dd)]
LTB4 receptor; [4]
  inhibition: 50.8%

## CCOC(=O)[C@H](COC(=O)c1ccccc1)NC(=O)/C(C)=C/c1ccc(C(=O)Oc2ccc(C(=N)N)cc2)cc1 [Example 2(e)]
[2]
  IC50: 8500 nM
LTB4 receptor; [4]
  inhibition: 94.5%
[1]; [5]
  IC50: 340 nM

## C=CCN(CC(=O)O)C(=O)/C(C)=C/c1ccc(C(=O)Nc2ccc(C(=N)N)cc2)cc1 [Example 2(ee)]
LTB4 receptor; [4]
  inhibition: 65.3%

## CCOC(=O)CC[C@H](NC(=O)c1ccc(/C=C/C(=O)Oc2ccc(C(=N)N)cc2)cc1)C(=O)OCC [Example 2(f)]
[2]
  IC50: 70000 nM
LTB4 receptor; [4]
  inhibition: 91.8%
[1]; [5]
  IC50: 100 nM

## COc1cc(C(=N)N)ccc1OC(=O)c1ccc(C(=O)N(CCCc2ccccc2)C(Cc2ccccc2)Cc2ccccc2)cc1 [Example 2(ff)]
LTB4 receptor; [4]
  inhibition: 82.4%

## CCOC(=O)CC[C@H](NC(=O)c1ccc(/C=C(\C)C(=O)Oc2ccc(C(=N)N)cc2)cc1)C(=O)OCC [Example 2(g)]
[2]
  IC50: 53000 nM
LTB4 receptor; [4]
  inhibition: 89.6%
[1]; [5]
  IC50: 160 nM

## CCOC(=O)/C=C/CC(NC(=O)/C(C)=C/c1ccc(C(=O)Oc2ccc(C(=N)N)cc2)cc1)(C(=O)OCC)C(=O)OCC [Example 2(h)]
[2]
  IC50: 11000 nM
LTB4 receptor; [4]
  inhibition: 85.4%
[1]; [5]
  IC50: 150 nM

## C=CCN(CC(=O)OCC)C(=O)c1ccc(C(=O)Oc2ccc(/C=C/C(=N)N)cc2)cc1 [Example 2(i)]
[2]
  IC50: 59000 nM
LTB4 receptor; [4]
  inhibition: 69.6%
[1]; [5]
  IC50: 140 nM

## CCOC(=O)CC[C@H](NC(=O)COc1ccc(C(=O)Oc2ccc(C(=N)N)cc2)cc1)C(=O)OCC [Example 2(j)]
LTB4 receptor; [4]
  inhibition: 55.4%
[1]; [5]
  IC50: 120 nM

## CCOC(=O)CC(NC(=O)/C(C)=C/c1ccc(C(=O)Oc2ccc(C(=N)N)cc2)cc1)(C(=O)OCC)C(=O)OCC [Example 2(k)]
[2]
  IC50: 20000 nM
LTB4 receptor; [4]
  inhibition: 97.7%
[1]; [5]
  IC50: 100 nM

## C=CCN(CC(=O)OCC)C(=O)c1ccc(/C=C(\C)C(=O)Oc2ccc(C(=N)N)cc2)cc1 [Example 2(l)]
[2]
  IC50: 94000 nM
LTB4 receptor; [4]
  inhibition: 81%
[1]; [5]
  IC50: 120 nM

## CCOC(=O)CC[C@H](NC(=O)/C=C/C=C/c1ccc(C(=O)Oc2ccc(C(=N)N)cc2)cc1)C(=O)OCC [Example 2(m)]
[2]
  IC50: 18000 nM
LTB4 receptor; [4]
  inhibition: 89.2%
[1]; [5]
  IC50: 170 nM

## C=CCN(CC(=O)OCC)C(=O)/C=C/C=C/c1ccc(C(=O)Oc2ccc(C(=N)N)cc2)cc1 [Example 2(n)]
[2]
  IC50: 10000 nM
LTB4 receptor; [4]
  inhibition: 82.8%
[1]; [5]
  IC50: 160 nM

## C=CCN(CC(=O)NCCN(C)C)C(=O)/C(C)=C/c1ccc(C(=O)Oc2ccc(C(=N)N)cc2)cc1 [Example 2(t)]
LTB4 receptor; [4]
  inhibition: 51.5%

## C=CCN(CC(=O)OCCN(C)C)C(=O)/C(C)=C/c1ccc(C(=O)Oc2ccc(C(=N)N)cc2)cc1 [Example 2(u)]
LTB4 receptor; [4]
  inhibition: 67.6%

## C=CCN(CC(=O)Oc1ccc(C(=N)N)cc1)C(=O)/C(C)=C/c1ccc(C(=O)Oc2ccc(C(=N)N)cc2)cc1 [Example 2(v)]
LTB4 receptor; [4]
  inhibition: 92%

## C=CCN(CC(=O)NC(C(=O)OCC)C(=O)OCC)C(=O)/C(C)=C/c1ccc(C(=O)Oc2ccc(C(=N)N)cc2)cc1 [Example 2(w)]
LTB4 receptor; [4]
  inhibition: 76.7%

## C=CCN(CC=C)C(=O)CN(CC=C)C(=O)/C(C)=C/c1ccc(C(=O)Oc2ccc(C(=N)N)cc2)cc1 [Example 2(x)]
LTB4 receptor; [4]
  inhibition: 94.1%

## CCOC(=O)CN(C(=O)/C(C)=C/c1ccc(C(=O)Oc2ccc(C(=N)N)cc2)cc1)[C@@H](CC(C)C)C(=O)OCC [Example 2(y)]
LTB4 receptor; [4]
  inhibition: 85.5%

## CCOC(=O)CCN(CCC(C)C)C(=O)/C(C)=C/c1ccc(C(=O)Oc2ccc(C(=N)N)cc2)cc1 [Example 2(z)]
LTB4 receptor; [4]
  inhibition: 92.8%

## CCOP(=O)(/C=C/c1ccc(C(=O)Oc2ccc(C(=N)N)cc2)cc1)OCC [Example 4(a)]
LTB4 receptor; [4]
  inhibition: 52%
[1]
  IC50: 140 nM

## N=C(N)c1ccc(OC(=O)c2ccc(Cn3ccnc3-c3ccccc3)cc2)cc1 [Example 5(a)]
LTB4 receptor; [4]
  inhibition: 62.5%
[1]; [5]
  IC50: 150 nM

## CCOC(=O)c1cc2ccccc2n1Cc1ccc(C(=O)Oc2ccc(C(=N)N)cc2)cc1 [Example 5(b)]
LTB4 receptor; [4]
  inhibition: 90.2%
